Results reported in patent publication US20040029208A1, “Assay method and kit for testing biological material for exposure to stress using biomarkers” (priority 2000, published 2004).

Columns and labels:
Anagallis arvensis = experiment: TLC plant biomarker pattern after herbicide spraying (greenhouse); assay type: in vivo
Description: (§1) The experiments were performed in the green-house at the National Environmental Research Institute, Silkeborg, Denmark. All the seeds needed light to germinate, and were sown at the soil surface in individual 11 cm pots. The soil used during the experiments contained: (SM Growing Mould (Growing medium by special soil (sphagnum) added clay granulate), 0-30 mm; grade of turnover 55-75; added per m^3: 3 kg lime (white chalk), 1.5 kg dolit chalk, 40 kg clay granulate; Fertilizer added granulate: NO3-N: 55.0 g; NH4-N: 65.0 g; P: 106.6 g; K: 224.0 g; Mg: 22 g; Micro nutrients added in chelate form, Mo in uorganic form: B-Boron: 1 g; Cu-copper: 6 g; Mn-Manganese: 3 g; Zinc-Zn: 3 g: Fe-iron: 6 g; Mo- molybdenum: 1.4 g).
(§2) During the experiments plants were watered from below, and the temperature in the green-house was maintained between 15° C. and 25° C. with variations due to external weather, and the photoperiod was 16th daylight. The green-house is divided into different units, which allowed for the separate maintenance of the control plants from the sprayed plants to avoid undesirable effects due to vapour drift.
(§3) Glyphosate (Roundup Bio (360 g L^−1) was supplied by Monsanto Denmark A/S. Recommended field dose=1,44 kg a.i. ha^−1. In all the experiments, an automatic sprayer (designed in Denmark by Jens Kristensen 1994) was used where the herbicide application is achieved by moving boom equipment with two ordinary hydraulic flat fan nozzles (Hardi 4110-16). Two pots per spray event were placed in the middle of the spray chamber at 50 cm distance from the nozzle, delivering 200 L of water per-hectare with a desired herbicide concentration (working pressure 2 bars; speed of spray boom=4.7 km h^−1). The spraying was performed starting with the lowest concentration first, progressing towards the highest concentration. Between each herbicide, the sprayer was thoroughly rinsed several times with water. The control plants were sprayed with water.
(§4) The fresh plant material was pressed using a hand press. The extract was immediately centrifuged. (3000 rpm) for 10 minutes. The supernatant was used for analysis. The extracts were kept cool or right above 0° C. during the test to avoid decomposition of biomarkers.
(§5) Freeze-dried plant material was crushed and 250 mg was extracted with 5.00 ml 75% ethanol in an ultrasonic bath for 2 hours. The temperature was kept <0° C. (using ice) during the extraction to avoid decomposition of biomarkers. The extract was centrifuged (3000 rpm) for 10 minutes. The supematant was used for analysis and were kept cool during the test to avoid decomposition of biomarkers.
(§6) The two extracts (freshtfresh ethanol) were applicated immediately on a TLC plate (10 μl on both TLC-Plate types (see below) using cool air-drying. The 75% ethanolic extract was applicated 10 μl on Silica-gel TLC-plates and 5 μl on Cellulose TLC-plates (see below). The fresh/fresh ethanolic extractsare recommended to perform if fresh plant material are to be analysed (field-test). The freeze-dried or frozen plant material extraction Is recommended if the analysis are performed in the laboratory.
[…] Derivatisation: Stock solution 1:50% sulfuric acid in 96% ethanol; Stock solution 2: 2% vanillin in absolut alcohol; Derivatisation-solvent, Fresh produced before us, stock solution 1 and stock solution 2 (1:10); Aftercare: 120° C. in 2-3 min. The plate is valuated visually. The system detects higher alcoholics, phenolic compounds, steroids and etheric oils (Stahl 1969), terpenoids, phenyl propanolds, phenolic compounds (Wagner etea. 1984)
TLC-System 7: HPTLC-Alufolie Silica Gel 60 F2u, Merck 1.05548 (10×10 cm); 10 μl plant extracts plants exposed to glyphosate and control plants; eluted in n-butanol: acetic acid: water (4:1:5) (upper phase after 5 minutes shaking). Derivatisation: 0,5 g p-anisaldehyde diluted in 10 ml conc. acetic acid and 85 ml absolute alcohol is and 5 ml conc. sulfuric acid (added in the following row). The plate is heated to. […]

Centauréa cýanus = experiment: as above; assay type: in vivo
Lólium perénne = experiment: as above; assay type: in vivo; conditions: Roundup Bio; Lólium perénne
Description: as §1, §2, §3, §4, §5, §6
(§7) TLC-System 1: HPTLC-Alufolie Silica Gel 60 F254, Merck 1.05548 (10×10 cm); 10 μl plant extracts plants exposed to glyphosate and control plants; eluted in n-butanol acetic acid: water (4:1:5) (upper phase after 5 minutes shaking). Derivatisation: Stock solution 1:50% sulfuric acid in 96% ethanol; Stock solution 2: 2% vanillin in absolut alcohol; Derivatisation-solvent, Fresh produced before us, stock solution 1 and stock solution 2 (1:10); Aftercare: 120° C. in 2-3 min. The plate is valuated visually. The system detects higher alcoholics, phenolic compounds, steroids and etheric oils (Stahl 1969), terpenoids, phenyl propanolds, phenolic compounds (Wagner etea. 1984) […]

Plantágo lanceoláta = experiment: as above; assay type: in vivo
Description: as §1, §2, §3, §4, §5, §6, §7

tobacco cell cultures = conditions: two cell lines, in the presence of glyphosate; cited from earlier work

O=C(O)CNCP(=O)(O)O [Glyphosate]
LC: lowest dose of concentration of the herbicide with phytochemical changes in all the TLC-Systems (Anagallis arvensis; Roundup Bio, Anagallis arvensis): 1% of field dose | Min. of label dose of herbicide with effect (Anagallis arvensis; TLC 1 (non-specific compounds)): 1% | Min. of label dose of herbicide with effect (Anagallis arvensis; TLC 6 (lipids and terpens)): 1% | Min. of label dose of herbicide with effect (Anagallis arvensis; TLC 4d (amino acids)): 1% | Min. of label dose of herbicide with effect (Centauréa cýanus; TLC 1 (non-specific compounds)): 10% | Min. of label dose of herbicide with effect (Centauréa cýanus; TLC 6 (lipids and terpens)): 10% | Min. of label dose of herbicide with effect (Centauréa cýanus; TLC 7 (non-specific compounds)): 10% | LC: lowest dose of concentration of the herbicide with phytochemical changes in all the TLC-Systems (Lólium perénne): 1% of field dose | LC: lowest dose of concentration of the herbicide with phytochemical changes in all the TLC-Systems (Plantágo lanceoláta; Roundup Bio, Plantágo lanceoláta): 1% of field dose | Min. of label dose of herbicide with effect (Plantágo lanceoláta; TLC 1 (non-specific compounds)): 1% | Min. of label dose of herbicide with effect (Plantágo lanceoláta; TLC 2 (phenolic compounds)): 1% | Min. of label dose of herbicide with effect (Plantágo lanceoláta; TLC 6 (lipids and terpens)): 1% | Min. of label dose of herbicide with effect (Plantágo lanceoláta; TLC 7 (non-specific compounds)): 1% | Min. of label dose of herbicide with effect (Plantágo lanceoláta; TLC 4d (amino acids)): 1% | increase of levels of free shikimic acid (tobacco cell cultures): more than 300 fold
